Test results published in PubChem BioAssay (NCI).
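Where inhibition never reached the appropriate level, the endpoint shown equals the highest concentration tested. Otherwise, values were interpolated linearly from a five-concentration, 48-hour dose response in 96-well plates. Abbreviation: GI50, concentration required for 50% inhibition of growth. Definition used: TGI = concentration required for complete inhibition of growth.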

Tests used:
Assay in all cases: growth of human tumour cells (NCI), 48 h
786-0 renal = system: 786-0 renal
A498 renal = system: A498 renal
A549 NSCLC = system: A549 NSCLC
CAKI-1 renal = system: CAKI-1 renal
CCRF-CEM leukemia = system: CCRF-CEM leukemia
COLO 205 colon = system: COLO 205 colon
DU-145 prostate = system: DU-145 prostate
EKVX NSCLC = system: EKVX NSCLC
HCT-116 colon = system: HCT-116 colon
HCT-15 colon = system: HCT-15 colon
HL-60(TB) leukemia = system: HL-60(TB) leukemia
HOP-62 NSCLC = system: HOP-62 NSCLC
HOP-92 NSCLC = system: HOP-92 NSCLC
HS 578T breast = system: HS 578T breast
IGROV1 ovarian = system: IGROV1 ovarian
K-562 leukemia = system: K-562 leukemia
KM12 colon = system: KM12 colon
LOX IMVI melanoma = system: LOX IMVI melanoma
M14 melanoma = system: M14 melanoma
MALME-3M melanoma = system: MALME-3M melanoma
MCF7 breast = system: MCF7 breast
MDA-MB-231 breast = system: MDA-MB-231 breast
MDA-MB-435 = system: MDA-MB-435
MOLT-4 leukemia = system: MOLT-4 leukemia
NCI-H226 lung = system: NCI-H226 lung
NCI-H23 lung = system: NCI-H23 lung
NCI-H460 lung = system: NCI-H460 lung
NCI-H522 lung = system: NCI-H522 lung
NCI/ADR-RES ovarian = system: NCI/ADR-RES ovarian
OVCAR-3 ovarian = system: OVCAR-3 ovarian
OVCAR-4 ovarian = system: OVCAR-4 ovarian
OVCAR-8 ovarian = system: OVCAR-8 ovarian
PC-3 prostate = system: PC-3 prostate
RPMI-8226 leukemia = system: RPMI-8226 leukemia
RXF 393 renal = system: RXF 393 renal
SF-268 CNS = system: SF-268 CNS
SF-295 CNS = system: SF-295 CNS
SF-539 CNS = system: SF-539 CNS
SK-MEL-2 melanoma = system: SK-MEL-2 melanoma
SK-MEL-28 melanoma = system: SK-MEL-28 melanoma
SK-MEL-5 melanoma = system: SK-MEL-5 melanoma
SK-OV-3 ovarian = system: SK-OV-3 ovarian
SN12C renal = system: SN12C renal
SNB-19 CNS = system: SNB-19 CNS
SR leukemia = system: SR leukemia
SW-620 colon = system: SW-620 colon
T-47D breast = system: T-47D breast
TK-10 renal = system: TK-10 renal
U251 CNS = system: U251 CNS
UACC-257 melanoma = system: UACC-257 melanoma
UACC-62 melanoma = system: UACC-62 melanoma
UO-31 renal = system: UO-31 renal
ACHN renal = system: ACHN renal
HCC-2998 colon = system: HCC-2998 colon
HT29 colon = system: HT29 colon
OVCAR-5 ovarian = system: OVCAR-5 ovarian
SNB-75 CNS = system: SNB-75 CNS

N#CC(C#N)=C1Nc2ccccc2S1
GI50 (786-0 renal): 41 µM
TGI (786-0 renal): > 100 µM
GI50 (A498 renal): 26.6 µM
TGI (A498 renal): 55.5 µM
GI50 (A549 NSCLC): 23.5 µM
TGI (A549 NSCLC): > 100 µM
GI50 (CAKI-1 renal): 24.5 µM
TGI (CAKI-1 renal): 70.9 µM
GI50 (CCRF-CEM leukemia): 45.5 µM
TGI (CCRF-CEM leukemia): > 100 µM
GI50 (COLO 205 colon): 29.5 µM
TGI (COLO 205 colon): > 100 µM
GI50 (DU-145 prostate): 49.2 µM
TGI (DU-145 prostate): > 100 µM
GI50 (EKVX NSCLC): 34.7 µM
TGI (EKVX NSCLC): > 100 µM
GI50 (HCT-116 colon): 37.7 µM
TGI (HCT-116 colon): > 100 µM
GI50 (HCT-15 colon): 48 µM
TGI (HCT-15 colon): > 100 µM
GI50 (HL-60(TB) leukemia): 30.1 µM
TGI (HL-60(TB) leukemia): > 100 µM
GI50 (HOP-62 NSCLC): 40.3 µM
TGI (HOP-62 NSCLC): > 100 µM
GI50 (HOP-92 NSCLC): 2.59 µM
TGI (HOP-92 NSCLC): 18.1 µM
GI50 (HS 578T breast): 34.1 µM
TGI (HS 578T breast): 85.9 µM
GI50 (IGROV1 ovarian): 35.9 µM
TGI (IGROV1 ovarian): > 100 µM
GI50 (K-562 leukemia): 38.3 µM
TGI (K-562 leukemia): > 100 µM
GI50 (KM12 colon): 34.8 µM
TGI (KM12 colon): > 100 µM
GI50 (LOX IMVI melanoma): 42.5 µM
TGI (LOX IMVI melanoma): > 100 µM
GI50 (M14 melanoma): 22.6 µM
TGI (M14 melanoma): > 100 µM
GI50 (MALME-3M melanoma): 7.62 µM
TGI (MALME-3M melanoma): 34.5 µM
GI50 (MCF7 breast): 33.5 µM
TGI (MCF7 breast): > 100 µM
GI50 (MDA-MB-231 breast): 43.4 µM
TGI (MDA-MB-231 breast): > 100 µM
GI50 (MDA-MB-435): 30.3 µM
TGI (MDA-MB-435): > 100 µM
GI50 (MOLT-4 leukemia): 33.3 µM
TGI (MOLT-4 leukemia): > 100 µM
GI50 (NCI-H226 lung): 27.3 µM
TGI (NCI-H226 lung): 76.8 µM
GI50 (NCI-H23 lung): 22.4 µM
TGI (NCI-H23 lung): 45.9 µM
GI50 (NCI-H460 lung): 32 µM
TGI (NCI-H460 lung): > 100 µM
GI50 (NCI-H522 lung): 32.4 µM
TGI (NCI-H522 lung): > 100 µM
GI50 (NCI/ADR-RES ovarian): 23.8 µM
TGI (NCI/ADR-RES ovarian): 69.5 µM
GI50 (OVCAR-3 ovarian): 20.3 µM
TGI (OVCAR-3 ovarian): 62.9 µM
GI50 (OVCAR-4 ovarian): 87 µM
TGI (OVCAR-4 ovarian): > 100 µM
GI50 (OVCAR-8 ovarian): 35.4 µM
TGI (OVCAR-8 ovarian): > 100 µM
GI50 (PC-3 prostate): 40.1 µM
TGI (PC-3 prostate): > 100 µM
GI50 (RPMI-8226 leukemia): 33.6 µM
TGI (RPMI-8226 leukemia): 79.7 µM
GI50 (RXF 393 renal): 36 µM
TGI (RXF 393 renal): > 100 µM
GI50 (SF-268 CNS): 27.8 µM
TGI (SF-268 CNS): > 100 µM
GI50 (SF-295 CNS): 24.3 µM
TGI (SF-295 CNS): 69 µM
GI50 (SF-539 CNS): 36.3 µM
TGI (SF-539 CNS): 93.7 µM
GI50 (SK-MEL-2 melanoma): 28.5 µM
TGI (SK-MEL-2 melanoma): 56.2 µM
GI50 (SK-MEL-28 melanoma): 27.7 µM
TGI (SK-MEL-28 melanoma): 77.4 µM
GI50 (SK-MEL-5 melanoma): 22.7 µM
TGI (SK-MEL-5 melanoma): 44.8 µM
GI50 (SK-OV-3 ovarian): 31.5 µM
TGI (SK-OV-3 ovarian): > 100 µM
GI50 (SN12C renal): 38.2 µM
TGI (SN12C renal): > 100 µM
GI50 (SNB-19 CNS): 38.2 µM
TGI (SNB-19 CNS): > 100 µM
GI50 (SR leukemia): 25.6 µM
TGI (SR leukemia): 51.9 µM
GI50 (SW-620 colon): 40.1 µM
TGI (SW-620 colon): > 100 µM
GI50 (T-47D breast): 35.8 µM
TGI (T-47D breast): > 100 µM
GI50 (TK-10 renal): 29.2 µM
TGI (TK-10 renal): 82.1 µM
GI50 (U251 CNS): 43.6 µM
TGI (U251 CNS): > 100 µM
GI50 (UACC-257 melanoma): 21.4 µM
TGI (UACC-257 melanoma): 68.7 µM
GI50 (UACC-62 melanoma): 37.2 µM
TGI (UACC-62 melanoma): > 100 µM
GI50 (UO-31 renal): 39.1 µM
TGI (UO-31 renal): > 100 µM

CCN(CCO)C(=O)C1(c2ccccc2)CCCCC1
TGI (A498 renal): > 10 µM
TGI (A549 NSCLC): > 10 µM
TGI (ACHN renal): > 10 µM
TGI (CAKI-1 renal): > 10 µM
TGI (CCRF-CEM leukemia): > 10 µM
TGI (COLO 205 colon): > 10 µM
TGI (DU-145 prostate): > 10 µM
TGI (EKVX NSCLC): > 10 µM
TGI (HCC-2998 colon): > 10 µM
TGI (HCT-116 colon): > 10 µM
TGI (HCT-15 colon): > 10 µM
TGI (HL-60(TB) leukemia): > 10 µM
TGI (HOP-62 NSCLC): > 10 µM
TGI (HS 578T breast): > 10 µM
TGI (HT29 colon): > 10 µM
TGI (IGROV1 ovarian): > 10 µM
TGI (K-562 leukemia): > 10 µM
TGI (KM12 colon): > 10 µM
TGI (LOX IMVI melanoma): > 10 µM
TGI (M14 melanoma): > 10 µM
TGI (MALME-3M melanoma): > 10 µM
TGI (MCF7 breast): > 10 µM
TGI (MDA-MB-231 breast): > 10 µM
TGI (MDA-MB-435): > 10 µM
TGI (MOLT-4 leukemia): > 10 µM
TGI (NCI-H226 lung): > 10 µM
TGI (NCI-H23 lung): > 10 µM
TGI (NCI-H460 lung): > 10 µM
TGI (NCI-H522 lung): > 10 µM
TGI (NCI/ADR-RES ovarian): > 10 µM
TGI (OVCAR-3 ovarian): > 10 µM
TGI (OVCAR-4 ovarian): > 10 µM
TGI (OVCAR-5 ovarian): > 10 µM
TGI (OVCAR-8 ovarian): > 10 µM
TGI (PC-3 prostate): > 10 µM
TGI (RPMI-8226 leukemia): > 10 µM
TGI (RXF 393 renal): > 10 µM
TGI (SF-268 CNS): > 10 µM
TGI (SF-295 CNS): > 10 µM
TGI (SF-539 CNS): > 10 µM
TGI (SK-MEL-2 melanoma): > 10 µM
TGI (SK-MEL-28 melanoma): > 10 µM
TGI (SK-MEL-5 melanoma): > 10 µM
TGI (SK-OV-3 ovarian): > 10 µM
TGI (SN12C renal): > 10 µM
TGI (SNB-19 CNS): > 10 µM
TGI (SNB-75 CNS): > 10 µM
TGI (SR leukemia): > 10 µM
TGI (SW-620 colon): > 10 µM
TGI (T-47D breast): > 10 µM
TGI (TK-10 renal): > 10 µM
TGI (U251 CNS): > 10 µM
TGI (UACC-62 melanoma): > 10 µM
TGI (UO-31 renal): > 10 µM
